The kinase profiling compilation of Christmann-Franck et al. (2016)

Assays:
Assay in all cases: KINOMEscan competition binding
Settings in all cases: compound 10.0 µM
[1] = target: MAP4K2 (human) (UniProt Q12851)
[2] = target: CDKL5 (human) (UniProt O76039)
[3] = target: PHKG1 (human) (UniProt Q16816)
[4] = target: CAMK2G (human) (UniProt Q13555)
[5] = target: CAMK1D (human) (UniProt Q8IU85)
[6] = target: NEK2 (human) (UniProt P51955)
[7] = target: LYN (human) (UniProt P07948)
[8] = target: CAMKK2 (human) (UniProt Q96RR4)
[9] = target: BMPR1B (human) (UniProt O00238)
[10] = target: DDR2 (human) (UniProt Q16832)
[11] = target: MYLK4 (human) (UniProt Q86YV6)
[12] = target: STK17A (human) (UniProt Q9UEE5)
[13] = target: MAPKAPK5 (human) (UniProt Q8IW41)
[14] = target: IRAK3 (human) (UniProt Q9Y616)
[15] = target: DCLK2 (human) (UniProt Q8N568)
[16] = target: STK32B (human) (UniProt Q9NY57)
[17] = target: RIOK3 (human) (UniProt O14730)
[18] = target: CDK2 (human) (UniProt P24941)
[19] = target: FGR (human) (UniProt P09769)
[20] = target: DYRK2 (human) (UniProt Q92630)
[21] = target: STK17B (human) (UniProt O94768)
[22] = target: SGK3 (human) (UniProt Q96BR1)
[23] = target: MINK1 (human) (UniProt Q8N4C8)
[24] = target: TYRO3 (human) (UniProt Q06418)
[25] = target: PRKD3 (human) (UniProt O94806)
[26] = target: CDKL1 (human) (UniProt Q00532)
[27] = target: CSNK1A1L (human) (UniProt Q8N752)
[28] = target: NTRK3 (human) (UniProt Q16288)
[29] = target: LATS2 (human) (UniProt Q9NRM7)
[30] = target: CAMK4 (human) (UniProt Q16566)
[31] = target: CAMK2D (human) (UniProt Q13557)
[32] = system: FGFR3 (human), P22607 [G697C]
[33] = target: JAK3 JH1 catalytic (human) (UniProt P52333)
[34] = target: CDK3 (human) (UniProt Q00526)
[35] = target: FER (human) (UniProt P16591)
[36] = target: TYK2 JH2 pseudokinase (human) (UniProt P29597)
[37] = target: MARK2 (human) (UniProt Q7KZI7)
[38] = target: MAP3K5 (human) (UniProt Q99683)
[39] = target: MAP4K4 (human) (UniProt O95819)
[40] = system: MET (human), P08581 [M1250T]

Sequence of MAP3K5 (human) (Q99683 whole entry, looked up): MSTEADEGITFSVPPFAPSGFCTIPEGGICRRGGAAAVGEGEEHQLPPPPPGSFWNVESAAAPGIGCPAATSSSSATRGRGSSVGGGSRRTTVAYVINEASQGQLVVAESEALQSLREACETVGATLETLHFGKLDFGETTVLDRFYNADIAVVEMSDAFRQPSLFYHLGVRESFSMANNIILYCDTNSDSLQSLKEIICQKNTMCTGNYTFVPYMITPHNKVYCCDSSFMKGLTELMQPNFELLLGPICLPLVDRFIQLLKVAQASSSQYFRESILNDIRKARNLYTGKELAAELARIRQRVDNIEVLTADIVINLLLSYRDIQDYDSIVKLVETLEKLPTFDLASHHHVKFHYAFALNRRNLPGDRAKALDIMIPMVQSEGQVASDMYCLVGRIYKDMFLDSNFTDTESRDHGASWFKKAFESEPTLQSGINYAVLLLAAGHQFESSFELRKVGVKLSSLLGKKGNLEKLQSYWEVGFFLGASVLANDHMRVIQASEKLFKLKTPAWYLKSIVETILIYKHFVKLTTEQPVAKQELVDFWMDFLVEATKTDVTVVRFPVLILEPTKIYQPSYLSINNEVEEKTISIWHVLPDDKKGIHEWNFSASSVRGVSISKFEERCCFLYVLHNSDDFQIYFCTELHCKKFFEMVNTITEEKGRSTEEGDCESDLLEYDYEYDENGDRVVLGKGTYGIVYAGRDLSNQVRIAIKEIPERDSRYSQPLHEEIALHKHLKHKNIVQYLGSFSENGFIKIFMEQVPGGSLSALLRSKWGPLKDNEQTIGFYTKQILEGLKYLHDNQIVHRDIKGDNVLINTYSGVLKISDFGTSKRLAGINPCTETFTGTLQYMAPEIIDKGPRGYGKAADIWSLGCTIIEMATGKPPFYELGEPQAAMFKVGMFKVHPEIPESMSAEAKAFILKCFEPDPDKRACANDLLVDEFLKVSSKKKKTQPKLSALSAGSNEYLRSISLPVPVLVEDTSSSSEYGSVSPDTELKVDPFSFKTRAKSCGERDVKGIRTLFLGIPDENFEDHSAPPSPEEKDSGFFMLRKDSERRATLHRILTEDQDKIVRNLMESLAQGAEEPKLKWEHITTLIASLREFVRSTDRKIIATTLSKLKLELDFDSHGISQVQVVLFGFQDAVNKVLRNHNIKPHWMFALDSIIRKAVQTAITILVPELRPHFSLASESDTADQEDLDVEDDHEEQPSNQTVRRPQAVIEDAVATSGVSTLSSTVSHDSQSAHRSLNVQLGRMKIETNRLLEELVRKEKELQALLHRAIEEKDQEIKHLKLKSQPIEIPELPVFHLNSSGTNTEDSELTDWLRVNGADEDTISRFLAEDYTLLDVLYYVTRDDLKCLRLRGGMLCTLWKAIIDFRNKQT
Sequence of CSNK1A1L (human) (Q8N752 whole entry, looked up): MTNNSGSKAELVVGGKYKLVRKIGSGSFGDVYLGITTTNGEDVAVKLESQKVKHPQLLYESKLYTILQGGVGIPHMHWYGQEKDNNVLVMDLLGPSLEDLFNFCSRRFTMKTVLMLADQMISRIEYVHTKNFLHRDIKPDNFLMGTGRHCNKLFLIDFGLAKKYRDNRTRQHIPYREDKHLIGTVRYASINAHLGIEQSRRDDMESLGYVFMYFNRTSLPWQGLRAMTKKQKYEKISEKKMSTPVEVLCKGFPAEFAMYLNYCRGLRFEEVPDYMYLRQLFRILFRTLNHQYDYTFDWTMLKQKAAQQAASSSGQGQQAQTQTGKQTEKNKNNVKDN
Sequence of CAMK1D (human) (Q8IU85 whole entry, looked up): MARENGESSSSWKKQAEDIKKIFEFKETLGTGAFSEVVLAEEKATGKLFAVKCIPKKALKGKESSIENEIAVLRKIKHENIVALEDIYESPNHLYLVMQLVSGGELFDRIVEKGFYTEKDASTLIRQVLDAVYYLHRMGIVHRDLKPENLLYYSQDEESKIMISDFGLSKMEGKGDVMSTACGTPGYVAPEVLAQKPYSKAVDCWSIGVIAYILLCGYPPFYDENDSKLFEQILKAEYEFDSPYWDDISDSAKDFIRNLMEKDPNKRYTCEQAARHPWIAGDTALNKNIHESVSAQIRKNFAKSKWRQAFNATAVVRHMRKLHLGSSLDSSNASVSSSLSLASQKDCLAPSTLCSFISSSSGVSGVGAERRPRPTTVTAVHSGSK
Sequence of RIOK3 (human) (O14730 whole entry, looked up): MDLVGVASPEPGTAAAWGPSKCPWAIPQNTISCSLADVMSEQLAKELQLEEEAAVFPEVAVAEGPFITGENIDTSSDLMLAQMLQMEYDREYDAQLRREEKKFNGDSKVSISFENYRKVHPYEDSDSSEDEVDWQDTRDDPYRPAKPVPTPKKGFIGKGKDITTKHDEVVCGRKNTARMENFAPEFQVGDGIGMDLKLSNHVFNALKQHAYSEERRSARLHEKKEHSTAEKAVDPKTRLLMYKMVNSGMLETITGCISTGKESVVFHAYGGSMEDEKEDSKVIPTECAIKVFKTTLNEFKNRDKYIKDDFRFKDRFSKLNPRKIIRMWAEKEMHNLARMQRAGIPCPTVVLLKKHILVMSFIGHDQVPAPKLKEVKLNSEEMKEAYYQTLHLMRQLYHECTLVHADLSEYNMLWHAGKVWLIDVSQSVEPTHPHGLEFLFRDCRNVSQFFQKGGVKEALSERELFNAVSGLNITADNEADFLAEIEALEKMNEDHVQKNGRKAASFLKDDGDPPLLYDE
Sequence of PRKD3 (human) (O94806 whole entry, looked up): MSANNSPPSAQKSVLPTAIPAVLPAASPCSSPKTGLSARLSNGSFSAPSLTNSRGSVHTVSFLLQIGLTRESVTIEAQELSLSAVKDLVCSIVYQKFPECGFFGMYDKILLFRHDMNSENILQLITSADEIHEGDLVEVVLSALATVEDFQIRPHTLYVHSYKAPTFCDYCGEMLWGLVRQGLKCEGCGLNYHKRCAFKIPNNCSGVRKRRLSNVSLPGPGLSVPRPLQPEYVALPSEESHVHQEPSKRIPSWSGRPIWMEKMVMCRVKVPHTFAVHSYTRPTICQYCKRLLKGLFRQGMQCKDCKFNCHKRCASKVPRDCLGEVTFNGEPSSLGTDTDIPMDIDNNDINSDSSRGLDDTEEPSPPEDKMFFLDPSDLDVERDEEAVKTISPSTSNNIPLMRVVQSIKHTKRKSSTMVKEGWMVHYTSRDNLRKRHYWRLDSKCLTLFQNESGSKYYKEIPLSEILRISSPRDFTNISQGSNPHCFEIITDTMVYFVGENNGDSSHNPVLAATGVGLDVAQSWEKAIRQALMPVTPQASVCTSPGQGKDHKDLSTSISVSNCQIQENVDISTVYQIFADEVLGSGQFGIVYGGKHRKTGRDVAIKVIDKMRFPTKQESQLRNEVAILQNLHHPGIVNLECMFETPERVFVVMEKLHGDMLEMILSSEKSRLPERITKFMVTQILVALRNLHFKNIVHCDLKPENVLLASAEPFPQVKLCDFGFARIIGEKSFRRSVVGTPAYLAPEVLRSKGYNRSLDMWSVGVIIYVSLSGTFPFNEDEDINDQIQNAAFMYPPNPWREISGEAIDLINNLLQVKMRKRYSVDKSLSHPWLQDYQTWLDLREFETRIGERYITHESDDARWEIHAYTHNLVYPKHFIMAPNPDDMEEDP
Sequence of CDKL5 (human) (O76039 whole entry, looked up): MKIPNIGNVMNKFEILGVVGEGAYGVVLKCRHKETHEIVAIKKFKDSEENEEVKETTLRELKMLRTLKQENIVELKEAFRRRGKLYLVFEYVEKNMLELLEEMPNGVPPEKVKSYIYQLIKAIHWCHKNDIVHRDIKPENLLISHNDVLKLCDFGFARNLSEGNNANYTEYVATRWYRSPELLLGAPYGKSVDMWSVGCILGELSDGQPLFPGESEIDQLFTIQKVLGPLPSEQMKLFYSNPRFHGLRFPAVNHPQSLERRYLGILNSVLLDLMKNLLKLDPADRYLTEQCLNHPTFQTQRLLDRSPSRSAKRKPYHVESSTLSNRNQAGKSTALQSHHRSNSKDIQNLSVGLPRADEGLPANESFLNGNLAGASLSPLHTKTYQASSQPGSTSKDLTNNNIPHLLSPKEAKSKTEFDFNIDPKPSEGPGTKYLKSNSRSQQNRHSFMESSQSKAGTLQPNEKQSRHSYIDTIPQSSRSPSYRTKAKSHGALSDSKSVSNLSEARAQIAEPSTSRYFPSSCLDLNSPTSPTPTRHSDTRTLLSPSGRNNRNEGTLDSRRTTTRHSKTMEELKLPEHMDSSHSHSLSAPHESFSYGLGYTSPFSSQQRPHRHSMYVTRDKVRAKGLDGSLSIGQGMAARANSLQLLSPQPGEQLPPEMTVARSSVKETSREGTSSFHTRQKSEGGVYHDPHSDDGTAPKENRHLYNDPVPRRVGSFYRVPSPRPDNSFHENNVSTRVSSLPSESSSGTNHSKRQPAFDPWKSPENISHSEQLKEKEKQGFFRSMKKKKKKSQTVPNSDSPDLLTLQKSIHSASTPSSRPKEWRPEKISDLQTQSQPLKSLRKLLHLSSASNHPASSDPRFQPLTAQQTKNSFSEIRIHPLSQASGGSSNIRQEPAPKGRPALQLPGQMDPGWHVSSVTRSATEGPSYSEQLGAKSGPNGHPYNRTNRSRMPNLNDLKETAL
Sequence of CAMKK2 (human) (Q96RR4 whole entry, looked up): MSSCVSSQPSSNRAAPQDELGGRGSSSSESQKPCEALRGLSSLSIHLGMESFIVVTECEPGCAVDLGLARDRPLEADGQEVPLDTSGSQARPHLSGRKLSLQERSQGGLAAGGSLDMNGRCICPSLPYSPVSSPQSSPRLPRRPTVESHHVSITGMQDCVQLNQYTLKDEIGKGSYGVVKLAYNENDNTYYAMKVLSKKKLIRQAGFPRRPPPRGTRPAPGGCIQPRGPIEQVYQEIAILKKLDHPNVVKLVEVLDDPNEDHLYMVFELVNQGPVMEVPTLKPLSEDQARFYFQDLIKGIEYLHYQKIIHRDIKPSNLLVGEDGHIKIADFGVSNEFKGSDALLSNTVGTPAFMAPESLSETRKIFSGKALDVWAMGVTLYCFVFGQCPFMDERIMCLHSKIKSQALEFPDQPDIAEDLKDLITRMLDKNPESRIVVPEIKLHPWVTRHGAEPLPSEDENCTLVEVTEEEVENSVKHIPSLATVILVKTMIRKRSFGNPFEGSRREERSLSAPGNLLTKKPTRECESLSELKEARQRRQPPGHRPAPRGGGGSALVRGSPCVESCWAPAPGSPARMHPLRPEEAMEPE

Row | SMILES | kinase still bound, per cent of control [1] [%] | kinase still bound, per cent of control [2] [%] | kinase still bound, per cent of control [3] [%] | kinase still bound, per cent of control [4] [%] | kinase still bound, per cent of control [5] [%] | kinase still bound, per cent of control [6] [%] | kinase still bound, per cent of control [7] [%] | kinase still bound, per cent of control [8] [%] | kinase still bound, per cent of control [9] [%] | kinase still bound, per cent of control [10] [%] | kinase still bound, per cent of control [11] [%] | kinase still bound, per cent of control [12] [%] | kinase still bound, per cent of control [13] [%] | kinase still bound, per cent of control [14] [%] | kinase still bound, per cent of control [15] [%] | kinase still bound, per cent of control [16] [%] | kinase still bound, per cent of control [17] [%] | kinase still bound, per cent of control [18] [%] | kinase still bound, per cent of control [19] [%] | kinase still bound, per cent of control [21] [%] | further results
1 | COc1cc2c(Nc3ccc(NC(=O)c4ccccc4)cc3)ncnc2cc1OCCCN1CCOCC1 | 39 | 46 | 53 | 100 | 62 | 51 | 7.2 | 81 | 26 | 100 | 100 | 100 | 100 | 17 | 100 | 100 | 100 | 82 | 19 | 100 | kinase still bound, per cent of control [20]: 91%; kinase still bound, per cent of control [22]: 100%; kinase still bound, per cent of control [23]: 33%; kinase still bound, per cent of control [24]: 60%; kinase still bound, per cent of control [25]: 100%; kinase still bound, per cent of control [26]: 81%; kinase still bound, per cent of control [27]: 99%; kinase still bound, per cent of control [28]: 98%; kinase still bound, per cent of control [29]: 82%; kinase still bound, per cent of control [30]: 100%; kinase still bound, per cent of control [31]: 100%; kinase still bound, per cent of control [32]: 100%; kinase still bound, per cent of control [33]: 62%; kinase still bound, per cent of control [34]: 100%; kinase still bound, per cent of control [35]: 65%; kinase still bound, per cent of control [36]: 83%; kinase still bound, per cent of control [37]: 81%; kinase still bound, per cent of control [38]: 100%
2 | CCCS(=O)(=O)Nc1ccc(F)c(C(=O)c2c[nH]c3ncc(Cl)cc23)c1F | 74 | 92 | 100 | 96 | 78 | 49 | 24 | 79 | 74 | 15 | 15 | 44 | 100 | 26 | 61 | 100 | 100 | 78 | 8.4 | 68 | kinase still bound, per cent of control [22]: 49%; kinase still bound, per cent of control [23]: 28%; kinase still bound, per cent of control [39]: 64%; kinase still bound, per cent of control [24]: 100%; kinase still bound, per cent of control [25]: 100%; kinase still bound, per cent of control [26]: 93%; kinase still bound, per cent of control [27]: 100%; kinase still bound, per cent of control [28]: 77%; kinase still bound, per cent of control [29]: 86%; kinase still bound, per cent of control [30]: 100%; kinase still bound, per cent of control [31]: 99%; kinase still bound, per cent of control [32]: 100%; kinase still bound, per cent of control [40]: 78%; kinase still bound, per cent of control [33]: 24%; kinase still bound, per cent of control [34]: 98%; kinase still bound, per cent of control [35]: 58%; kinase still bound, per cent of control [36]: 100%; kinase still bound, per cent of control [37]: 92%; kinase still bound, per cent of control [38]: 74%
3 | CCc1nc(-c2cccc(C)c2)c(-c2ccnc(NC(=O)c3ccccc3)c2)s1 | 93 | 100 | 100 | 100 | 100 | 95 | 54 | 100 | 100 | 16 | 100 | 81 | 100 | 84 | 98 | 7 | 100 | 100 | 52 | 91 | kinase still bound, per cent of control [20]: 99%; kinase still bound, per cent of control [22]: 100%; kinase still bound, per cent of control [23]: 8.4%; kinase still bound, per cent of control [24]: 83%; kinase still bound, per cent of control [25]: 26%; kinase still bound, per cent of control [26]: 100%; kinase still bound, per cent of control [27]: 1.3%; kinase still bound, per cent of control [28]: 96%; kinase still bound, per cent of control [29]: 90%; kinase still bound, per cent of control [30]: 99%; kinase still bound, per cent of control [31]: 100%; kinase still bound, per cent of control [32]: 93%; kinase still bound, per cent of control [40]: 100%; kinase still bound, per cent of control [33]: 80%; kinase still bound, per cent of control [34]: 100%; kinase still bound, per cent of control [35]: 60%; kinase still bound, per cent of control [36]: 57%; kinase still bound, per cent of control [37]: 100%; kinase still bound, per cent of control [38]: 100%
4 | Cc1cn(-c2cc(C(=O)Nc3ccc(C)c(NC(=O)c4ccno4)c3)cc(C(F)(F)F)c2)cn1 | 100 | 100 | 100 | 100 | 100 | 100 | 4.8 | 100 | 100 | 15 | 100 | 100 | 100 | 100 | 100 | 100 | 100 | 100 | 23 | 100 | kinase still bound, per cent of control [20]: 100%; kinase still bound, per cent of control [23]: 100%; kinase still bound, per cent of control [39]: 100%; kinase still bound, per cent of control [24]: 100%; kinase still bound, per cent of control [25]: 100%; kinase still bound, per cent of control [27]: 100%; kinase still bound, per cent of control [28]: 100%; kinase still bound, per cent of control [29]: 100%; kinase still bound, per cent of control [30]: 100%; kinase still bound, per cent of control [31]: 100%; kinase still bound, per cent of control [32]: 100%; kinase still bound, per cent of control [40]: 100%; kinase still bound, per cent of control [33]: 100%; kinase still bound, per cent of control [34]: 100%; kinase still bound, per cent of control [35]: 100%; kinase still bound, per cent of control [36]: 100%; kinase still bound, per cent of control [37]: 100%; kinase still bound, per cent of control [38]: 100%
